Measurements: patent publication US9902696B2, “1,4-substituted piperidine derivatives” (Cephalon, Inc., priority 2015, dated 2018)
Where a name gives a salt, the structure may show the parent alone.

What follows are compounds tested against T1, recombinant human baculovirus-expressed GST-tagged FASN (Homo sapiens, UniProt P49327) (assay: FASN enzyme activity assay, fluorescence-based detection of CoA with CPM). Conditions: 5 nM FASN, 150 μM NADPH, 10 μM acetyl-CoA, 25 μM malonyl-CoA, 90 minutes incubation; read-out: IC50 data for Additional Compounds of Formulae I-V(a): Activity.
T1 construct: GST
T1 sequence (P49327 whole entry): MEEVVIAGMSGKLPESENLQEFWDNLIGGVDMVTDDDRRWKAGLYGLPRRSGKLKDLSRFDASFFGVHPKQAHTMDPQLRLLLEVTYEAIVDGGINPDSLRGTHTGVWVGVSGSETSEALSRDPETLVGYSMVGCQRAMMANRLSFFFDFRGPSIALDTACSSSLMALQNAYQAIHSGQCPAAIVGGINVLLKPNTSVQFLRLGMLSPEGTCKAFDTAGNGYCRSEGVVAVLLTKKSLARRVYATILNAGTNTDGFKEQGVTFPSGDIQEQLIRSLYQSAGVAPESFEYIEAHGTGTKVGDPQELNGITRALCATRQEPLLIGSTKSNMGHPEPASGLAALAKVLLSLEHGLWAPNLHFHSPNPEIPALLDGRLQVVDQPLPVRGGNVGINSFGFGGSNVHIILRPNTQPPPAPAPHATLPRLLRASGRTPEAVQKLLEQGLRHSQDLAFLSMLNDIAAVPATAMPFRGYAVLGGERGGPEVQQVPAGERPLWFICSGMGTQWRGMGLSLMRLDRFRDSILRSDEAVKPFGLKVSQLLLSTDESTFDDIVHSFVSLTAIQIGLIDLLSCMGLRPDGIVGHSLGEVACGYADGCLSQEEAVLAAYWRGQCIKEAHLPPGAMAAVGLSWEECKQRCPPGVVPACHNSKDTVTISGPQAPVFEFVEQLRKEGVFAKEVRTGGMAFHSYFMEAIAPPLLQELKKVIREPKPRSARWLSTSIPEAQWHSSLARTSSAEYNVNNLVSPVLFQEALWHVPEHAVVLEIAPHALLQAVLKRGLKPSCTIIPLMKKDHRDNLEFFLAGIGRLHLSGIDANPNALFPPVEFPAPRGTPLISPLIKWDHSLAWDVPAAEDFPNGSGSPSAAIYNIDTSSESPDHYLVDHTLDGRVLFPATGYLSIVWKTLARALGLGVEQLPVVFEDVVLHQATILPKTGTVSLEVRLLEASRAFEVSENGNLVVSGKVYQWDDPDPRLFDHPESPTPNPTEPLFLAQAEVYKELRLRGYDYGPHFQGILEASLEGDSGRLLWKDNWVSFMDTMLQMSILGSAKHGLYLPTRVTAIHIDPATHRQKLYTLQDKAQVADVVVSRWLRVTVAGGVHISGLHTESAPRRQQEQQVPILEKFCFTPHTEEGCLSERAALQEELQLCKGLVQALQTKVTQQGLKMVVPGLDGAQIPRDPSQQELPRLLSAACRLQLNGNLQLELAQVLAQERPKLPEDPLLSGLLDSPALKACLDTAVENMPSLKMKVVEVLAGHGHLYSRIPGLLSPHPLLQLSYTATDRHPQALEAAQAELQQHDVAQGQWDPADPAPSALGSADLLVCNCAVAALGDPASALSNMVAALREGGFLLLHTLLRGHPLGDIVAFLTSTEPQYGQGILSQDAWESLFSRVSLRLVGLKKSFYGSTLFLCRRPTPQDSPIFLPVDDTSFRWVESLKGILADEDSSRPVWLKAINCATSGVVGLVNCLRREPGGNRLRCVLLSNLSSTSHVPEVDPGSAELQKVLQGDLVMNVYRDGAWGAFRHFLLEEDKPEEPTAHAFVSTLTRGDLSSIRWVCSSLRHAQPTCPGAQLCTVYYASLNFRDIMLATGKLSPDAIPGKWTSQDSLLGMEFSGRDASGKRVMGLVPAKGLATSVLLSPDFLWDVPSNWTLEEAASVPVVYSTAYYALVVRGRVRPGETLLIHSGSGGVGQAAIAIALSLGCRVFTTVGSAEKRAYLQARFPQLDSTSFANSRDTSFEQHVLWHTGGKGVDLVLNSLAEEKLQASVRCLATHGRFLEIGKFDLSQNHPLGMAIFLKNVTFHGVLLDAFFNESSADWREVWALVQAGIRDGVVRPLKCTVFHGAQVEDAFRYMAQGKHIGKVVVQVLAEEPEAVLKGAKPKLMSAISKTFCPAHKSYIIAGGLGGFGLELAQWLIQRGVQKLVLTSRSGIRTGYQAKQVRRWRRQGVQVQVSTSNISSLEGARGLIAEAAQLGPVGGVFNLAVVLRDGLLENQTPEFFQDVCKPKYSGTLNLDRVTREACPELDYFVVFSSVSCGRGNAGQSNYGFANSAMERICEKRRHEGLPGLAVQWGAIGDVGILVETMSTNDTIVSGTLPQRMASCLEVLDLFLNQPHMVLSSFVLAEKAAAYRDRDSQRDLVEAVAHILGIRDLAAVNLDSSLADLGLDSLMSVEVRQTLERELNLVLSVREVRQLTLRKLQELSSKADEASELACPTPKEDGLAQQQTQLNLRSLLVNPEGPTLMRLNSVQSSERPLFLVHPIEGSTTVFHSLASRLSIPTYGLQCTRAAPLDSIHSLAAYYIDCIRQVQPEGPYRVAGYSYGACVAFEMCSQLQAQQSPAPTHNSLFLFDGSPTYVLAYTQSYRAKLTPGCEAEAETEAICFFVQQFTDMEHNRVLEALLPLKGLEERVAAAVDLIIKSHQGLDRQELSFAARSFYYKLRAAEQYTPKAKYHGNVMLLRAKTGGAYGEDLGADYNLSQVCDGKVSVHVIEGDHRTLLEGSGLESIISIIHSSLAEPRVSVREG
Type: biochemical
Source text: FASN Enzyme activity may be determined by detecting coenzyme A (CoA), a product of FASN-catalyzed synthesis of palmitate from acetyl-CoA and malonyl-CoA with NADPH as a cofactor. The assay is fluorescence-based and measures the interaction of free CoA with 7-diethylamino-3-(4′-malemimidylphenyl)-4-methylcoumarin (CPM; Life Technologies, CA) as described in Chung et al (2008). The coumarin derivative CPM contains a thiol-reactive maleimide that becomes fluorescent upon interaction with the sulfhydryl group of CoA.
For the example compounds described herein, the reaction was performed in 384-well low volume non-binding plates (Corning, N.Y.) using recombinant human baculovirus-expressed GST-tagged FASN. The 20-μL assay mixture contained 50 mM HEPES (pH 7.5), 5 nM FASN, 150 μM NADPH (Sigma, St. Louis, Mo.), 10 μM acetyl-CoA (Sigma), 25 μM malonyl-CoA (Sigma) and test compound [diluted in dimethyl sulfoxide (DMSO); 0.5% DMSO final in assay after 100 nL addition]. See, Chung et al.; “A fluorescence-based thiol quantification assay for ultra-high-throughput screening for inhibitors of coenzyme A production,” Assay Drug Dev Tech 2008; 6:361-374.
The reaction was initiated by adding malonyl-CoA, followed by incubation for 90 minutes at […]. A stock solution of the CPM reagent was prepared in DMSO at […] and stored at […]. To detect CoA produced in the FASN reaction, the CPM stock was diluted to […] in 70% ethanol and added at 4 μL/well to the assay plate. The reaction mixture was then incubated for 30 minutes. Fluorescence was measured using the EnVision™ 2102 multi-label plate reader (PerkinElmer, Waltham, Mass.) utilizing a general dual mirror, a 390 nm excitation filter and a 530 nm emission filter. Data analysis was performed using ActivityBase (IDBS, Guilford, UK). IC50 values were calculated by plotting the percent inhibition versus log 10 of the concentration of the compound, and fitting to the nonlinear regression sigmoidal dose-response (variable slope) equation in XLFit (IDBS).

Row | IC50 | SMILES
1 | 1000 to 10000 nM | COCCNC(=O)N1CCC(Oc2ccc(-c3ccc4nccn4c3C)cc2)CC1 [Example 597, N-(2-Methoxyethyl)-4-[4-(5-methylimidazo[1,2-a]pyridin-6-yl)phenoxy]-piperidine-1-carboxamide]
2 | 1000 to 10000 nM | Cc1c(-c2ccc(OC3CCN(C(=O)NO)CC3)cc2)ccc2nccn12 [Example 613, 4-[4-(5-Methylimidazo[1,2-a]pyridin-6-yl)phenoxy]piperidine-1-carbohydroxamic acid]
3 | 100 to 999 nM | Cc1c(-c2ccc(OC3CCN(C(=O)NCC4CC4)CC3)cc2)ccc2nccn12 [Example 595, N-(Cyclopropylmethyl)-4-[4-(5-methylimidazo[1,2-a]pyridin-6-yl)-phenoxy]piperidine-1-carboxamide]
4 | 1000 to 10000 nM | Cc1c(-c2ccc(OC3CCN(C(=O)OCC(C)C)CC3)cc2)ccc2cccnc12 [Example 550, Isobutyl 4-[4-(8-methyl-7-quinolyl)phenoxy]piperidine-1-carboxylate, HCl]
5 | 1000 to 10000 nM | COCCOC(=O)N1CCC(Oc2ccc(-c3ccc4cccnc4c3C)cc2)CC1 [Example 555, 2-Methoxyethyl 4-[4-(8-methyl-7-quinolyl)phenoxy]piperidine-1-carboxylate, HCl]
6 | 1 to 99 nM | Cc1c(-c2ccc(OC3CCN(C(=O)Nc4cccnc4)CC3)cc2)ccc2nccn12 [Example 596, 4-[4-(5-Methylimidazo[1,2-a]pyridin-6-yl)phenoxy]-N-(3-pyridyl)piperidine-1-carboxamide]
7 | 1 to 99 nM | CCONC(=O)N1CCC(Oc2ccc(-c3ccc4ccnn4c3C)cc2)CC1 [Example 538, N-Ethoxyoxy-4-[4-(7-methylpyrazolo[1,5-a]pyridin-6-yl)phenoxy]piperidine-1-carboxamide]
8 | 1000 to 10000 nM | CCCONC(=O)N1CCC(Oc2ccc(-c3ccc4nccn4c3Cl)cc2)CC1 [Example 576, 4-[4-(5-Chloroimidazo[1,2-a]pyridin-6-yl)phenoxy]-N-propoxy-piperidine-1-carboxamide]
9 | 1 to 99 nM | CCNC(=O)N1CCC(Oc2ccc(-c3ccn4ccnc4c3)cc2)CC1 [Example 628, N-Ethyl-4-(4-imidazo[1,2-a]pyridin-7-ylphenoxy)piperidine-1-carboxamide, HCl]
10 | 1000 to 10000 nM | Cc1c(-c2ccc(OC3CCN(C(=O)NCCc4c[nH]cn4)CC3)cc2)ccc2cccnc12 [Example 548, N-[2-(1H-Imidazol-4-yl)ethyl]-4-[4-(8-methyl-7-quinolyl)phenoxy]piperidine-1-carboxamide, 2HCl]

Same assay, conditions: 5 nM FASN, 150 μM NADPH, 10 μM acetyl-CoA, 25 μM malonyl-CoA, 90 minutes incubation; read-out: IC50 data for Compounds of Formulae I-V/V(a): Activity

Row | IC50 | SMILES
11 | 100 to 999 nM | Cc1cnc(C)c2ccc(-c3ccc(OC4CCN(C(=O)C5CC5)CC4)cc3)cc12 [Example 470, Cyclopropyl-[4-[4-(1,4-dimethyl-6-isoquinolyl)phenoxy]-1-piperidyl]methanone, HCl]
12 | 1 to 99 nM | CCc1nccc2cc(-c3ccc(OC4CCN(C(=O)[C@H]5CCCO5)CC4)cc3)ccc12 [Example 438, {4-[4-(1-Ethylisoquinolin-6-yl)-phenoxy]-piperidin-1-yl}-(R)-tetrahydro-furan-2-yl-methanone, HCl]
13 | 1 to 99 nM | COCCNc1c(-c2ccc(OC3CCN(C(=O)[C@H]4CCCO4)CC3)cc2)ccc2cccnc12 [Example 327, (4-{4-[8-(2-Methoxyethylamino)-quinolin-7-yl]-phenoxy}-piperidin-1-yl)-(R)-tetrahydrofuran-2-yl-methanone]
14 | 1 to 99 nM | O=C([C@H]1CCCO1)N1CCC(Oc2ccc(-c3ccc4cccnc4c3O)cc2)CC1 [Example 190, {4-[4-(8-Hydroxyquinolin-7-yl)-phenoxy]-piperidin-1-yl}-(R)-tetrahydro-furan-2-yl-methanone, HCl]
15 | 1000 to 10000 nM | O=C(C1CCC1)N1CCC(Oc2ccc(-c3ccc(Oc4ccccc4)nc3)cc2)CC1 [Example 391, Cyclobutyl-{4-[4-(6-phenoxy-pyridin-3-yl)-phenoxy]-piperidin-1-yl}-methanone]
16 | 1 to 99 nM | COc1c(-c2ccc(OC3CCN(C(=O)[C@H]4CCCO4)CC3)cc2)ccc2cccnc12 [Example 272, {4-[4-(8-Methoxyquinolin-7-yl)-phenoxy]-piperidin-1-yl}-(R)-tetrahydro-furan-2-yl-methanone, TFA salt]
17 | 1000 to 10000 nM | COc1cc2ncc(-c3ccc(OC4CCN(C(=O)[C@H]5CCCO5)CC4)cc3)cc2cc1F [Example 446, {4-[4-(6-Fluoro-7-methoxyquinolin-3-yl)-phenoxy]-piperidin-1-yl}-(R)-tetrahydrofuran-2-yl-methanone]
18 | 1 to 99 nM | O=C([C@H]1CCCO1)N1CCC(Oc2ccc(-c3ccc4ccccc4n3)cc2)CC1 [Example 42, [4-(4-Quinolin-2-yl-phenoxy)-piperidin-1-yl]-(R)-tetrahydrofuran-2-yl-methanone]
19 | 1000 to 10000 nM | O=C(C1CCOC1)N1CCC(Oc2ccc(-c3cnc4ccccc4c3)cc2)CC1 (stereo not shown) [Example 107, [4-(4-Quinolin-3-yl-phenoxyl)-piperidin-1-yl]-(tetrahydrofuran-3-yl)-methanone, 2HCl]
20 | 1 to 99 nM | Cc1c(-c2ccc(OC3CCN(C(=O)C4CC4)CC3)cc2)cnc2ccccc12 [Example 61]
21 | 100 to 999 nM | Cc1c(-c2ccc(OC3CCN(C(=O)C(C)(F)F)CC3)cc2)ccc2cccnc12 [Example 358, 2,2-Difluoro-1-{4-[4-(8-methylquinolin-7-yl)-phenoxy]-piperidin-1-yl}-propan-1-one, HCl]
22 | 1000 to 10000 nM | O=C(c1ccsn1)N1CCC(Oc2ccc(-c3cnc4ccccc4c3)cc2)CC1 [Example 125, Isothiazol-3-yl-[4-(4-quinolin-3-yl-phenoxy)-piperidin-1-yl]-methanone, HCl]
23 | 1000 to 10000 nM | O=C(C1CCC1)N1CCC(Oc2ccc(-c3ccc(Nc4ccccc4)nc3)cc2)CC1 [Example 394, Cyclobutyl-{4-[4-(6-phenylaminopyridin-3-yl)-phenoxy]-piperidin-1-yl}-methanone, TFA salt]
24 | 1 to 99 nM | COc1ccc2ncc(-c3ccc(OC4CCN(C(=O)[C@H]5CCCO5)CC4)cc3)cc2c1 [Example 450, {4-[4-(6-Methoxyquinolin-3-yl)-phenoxy]-piperidin-1-yl}-(R)-tetrahydro-furan-2-yl-methanone, HCl]
25 | 1000 to 10000 nM | CCC(=O)N1CCC(Oc2ccc(-c3c[nH]c4ccccc34)cc2)CC1 [Example 246, 1-{4-[4-(1H-Indol-3-yl)-phenoxy]-piperidin-1-yl}-propan-1-one]
26 | 1 to 99 nM | COc1cc2cc(-c3ccc(OC4CCN(C(=O)[C@H]5CCCO5)CC4)cc3)ccc2cn1 [Example 418, {4-[4-(3-Methoxy-isoquinolin-6-yl)-phenoxy]-piperidin-1-yl}-(R)-tetrahydrofuran-2-yl-methanone]
27 | 1 to 99 nM | CCC(=O)N1CCC(Oc2ccc(-c3cc4ccccc4cn3)cc2)CC1 [Example 43, 1-[4-(4-Isoquinolin-3-yl-phenoxy)-piperidin-1-yl]-propan-1-one]
28 | 1000 to 10000 nM | CCC(=O)N1CCC(Oc2ccc(-c3cnc4ccccc4c3N)cc2)CC1 [Example 231, 1-{4-[4-(4-Aminoquinolin-3-yl)-phenoxy]-piperidin-1-yl}-propan-1-one]
29 | 1 to 99 nM | Cc1c(-c2ccc(OC3CCN(C(=O)C4CC4)CC3C)cc2)ccc2cccnc12 (stereo not shown) [Example 376, Cyclopropyl-{3-methyl-4-[4-(8-methylquinolin-7-yl)-phenoxy]-piperidin-1-yl}-methanone, TFA salt]
30 | 1 to 99 nM | CCC(=O)N1CCC(Oc2ccc(-c3cnc4ccccc4c3)c(F)c2)CC1 [Example 200, 1-[4-(3-Fluoro-4-quinolin-3-yl-phenoxy)-piperidin-1-yl]-propan-1-one]
31 | 100 to 999 nM | CCC(=O)N1CCC(Oc2ccc(-c3ccc4cc(Cl)cnc4c3)cc2)CC1 [Example 266, 1-{4-[4-(3-Chloroquinolin-7-yl)-phenoxy]-piperidin-1-yl}-propan-1-one, TFA salt]
32 | 100 to 999 nM | CCC(=O)N1CCC(Oc2ccc(-c3ccc4cccnc4c3C)cc2)CC1C (mixture of isomers) [Example 364, 1-{2-Methyl-4-[4-(8-methylquinolin-7-yl)-phenoxy]-piperidin-1-yl}-propan-1-one, HCl]
33 | 1000 to 10000 nM | CCC(=O)N1CCC(Sc2ccc(-c3cncc4ccccc34)cc2)CC1 [Example 519, 1-(4-((4-(Isoquinolin-4-yl)phenyl)thio)piperidin-1-yl)propan-1-one, HCl]
34 | 100 to 999 nM | COc1ccc2ncc(-c3ccc(OC4CCN(C(=O)C5CC5)CC4)cc3)cc2c1 [Example 54, Cyclopropyl-{4-[4-(6-methoxyquinolin-3-yl)-phenoxy]-piperidin-1-yl}-methanone]
